Measurements published in patent publication US6627760B1, “Amorphous compound” (AstraZeneca AB, priority 2001, dated 2003).

Tests used:
[1] = Glass transition temperature by Differential Scanning Calorimetry (DSC); type: physicochemical; conditions: dry amorphous lisinopril
Protocol: Differential Scanning Calorimetry (DSC) was performed on approximately 0.5-3 mg sample, using a Mettler DSC820 instrument, according to standard methods, for example those described in Hohne et al. (1996) Differential scanning Calorimetry, Springer, Berlin.

[2] = Glass transition temperature by Thermal Mechanical Analysis (TMA); type: physicochemical; conditions: heating rate 10° C./min, 30-160° C.
Protocol: The method involves compressing 140 mg of material in a punch and die (3 mm) to 2 KN. The compressed pellet was then placed on the TMA and the 1.1 mm probe placed on the top face. A heating rate of 10° C./min was used and the sample was heated from 30-160° C.

[3] = cited from earlier work

Row | Structure (SMILES) | glass transition temperature (Tg) by DSC [1] [°C] | glass transition temperature by TMA [2] [°C] | effective half-life of accumulation ([3]; multiple dosing) | time to peak serum concentrations ([3]; oral administration) [h]
1 | NCCCC[C@H](NC(CCc1ccccc1)C(=O)O)C(=O)N1CCC[C@H]1C(=O)O (stereo partly drawn) [amorphous lisinopril, (S)-1-[N^2-(1-carboxy-3-phenylpropyl]-L-lysyl]-L-proline] | 125 | 129 | – | –
2 | NCCCC[C@H](NC(CCc1ccccc1)C(=O)O)C(=O)N1CCC[C@H]1C(=O)O (stereo partly drawn) [lisinopril, (S)-1-[N^2-(1-carboxy-3-phenylpropyl]-L-lysyl]-L-proline] | – | – | about 12.6 hours | ≤ 7
